Test results reported in patent US9139569B2, “Fused tricyclic aryl compounds useful for the treatment of viral diseases” (Merck Sharp & Dohme Corp., priority 2009, dated 2015).

Legend:
HCV replicon genotype 3a = assay: Cell-based HCV replicon assay, genotype 3a; conditions: Hepatitis C virus, 72 h, HCV replicon cells, replicon RNA by real time PCR on day 3, read-out: EC50 (nM) (gt3a)
Experimental: To measure cell-based anti-HCV activity of selected compounds of the present invention, replicon cells were seeded at 5000 cells/well in 96-well collagen I-coated Nunc plates in the presence of the test compound. Various concentrations of test compound, typically in 10 serial 2-fold dilutions, were added to the assay mixture, with the starting concentration ranging from 250 μM to 1 μM. The final concentration of DMSO was 0.5%, fetal bovine serum was 5%, in the assay media. Cells were harvested on day 3 by the addition of 1× cell lysis buffer (Ambion cat #8721). The replicon RNA level was measured using real time PCR (Taqman assay). The amplicon was located in 5B. The PCR primers were: 5B.2F, ATGGACAGGCGCCCTGA (SEQ. ID NO. 1); 5B.2R, […] (SEQ. ID NO. 2); the probe sequence was FAM-labeled CACGCCATGCGCTGCGG (SEQ. ID NO. 3). GAPDH RNA was used as endogenous control and was amplified in the same reaction as NS5B (multiplex PCR) using primers and VIC-labeled probe recommended by the manufacturer (PE Applied Biosystem). […] Alternatively, to quantitate the absolute amount of replicon RNA, a standard curve was established by including serially diluted T7 transcripts of replicon RNA in the Taqman assay. […]
(§1) HCV replicon assay data was calculated for genotypes 1a, 1b, 2a and 3a for selected compounds of the present invention using this method and is provided in the table below.

HCV replicon genotype 2a = assay: Cell-based HCV replicon assay, genotype 2a; conditions: Hepatitis C virus, 72 h, HCV replicon cells, replicon RNA by real time PCR on day 3, read-out: EC50 (nM) (gt2a)
Experimental: (§2) To measure cell-based anti-HCV activity of selected compounds of the present invention, replicon cells were seeded at 5000 cells/well in 96-well collagen I-coated Nunc plates in the presence of the test compound. Various concentrations of test compound, typically in 10 serial 2-fold dilutions, were added to the assay mixture, with the starting concentration ranging from 250 μM to 1 μM. The final concentration of DMSO was 0.5%, fetal bovine serum was 5%, in the assay media. Cells were harvested on day 3 by the addition of 1× cell lysis buffer (Ambion cat #8721). The replicon RNA level was measured using real time PCR (Taqman assay). The amplicon was located in 5B. The PCR primers were: 5B.2F, ATGGACAGGCGCCCTGA (SEQ. ID NO. 1); 5B.2R, […] (SEQ. ID NO. 2); the probe sequence was FAM-labeled CACGCCATGCGCTGCGG (SEQ. ID NO. 3). GAPDH RNA was used as endogenous control and was amplified in the same reaction as NS5B (multiplex PCR) using primers and VIC-labeled probe recommended by the manufacturer (PE Applied Biosystem). The real-time RT-PCR reactions were run on ABI PRISM 7900HT Sequence Detection System using the following program: 48° C. for 30 min, 95° C. for 10 min, 40 cycles of 95° C. for 15 sec, 60° C. for 1 min. The ACT values (CT5B-CTGAPDH) were plotted against the concentration of test compound and fitted to the sigmoid dose-response model using XLfit4 (MDL). EC50 was defined as the concentration of inhibitor necessary to achieve ΔCT=1 over the projected baseline; EC90 the concentration necessary to achieve ΔCT=3.2 over the baseline. Alternatively, to quantitate the absolute amount of replicon RNA, a standard curve was established by including serially diluted T7 transcripts of replicon RNA in the Taqman assay. All Taqman reagents were from PE Applied Biosystems. Such an assay procedure was described in detail in e.g. Malcolm et al., Antimicrobial Agents and Chemotherapy 50: 1013-1020 (2006).
as §1

HCV replicon genotype 1a = assay: Cell-based HCV replicon assay, genotype 1a; conditions: Hepatitis C virus, 72 h, HCV replicon cells, replicon RNA by real time PCR on day 3, read-out: EC50 (nM) (gt1a)
Experimental: as §2, §1

HCV replicon genotype 1b = assay: Cell-based HCV replicon assay, genotype 1b; conditions: Hepatitis C virus, 72 h, HCV replicon cells, replicon RNA by real time PCR on day 3, read-out: EC50 (nM) (gt1b)
Experimental: as §2, §1

Compound | EC50 (HCV replicon genotype 3a) | EC50 (HCV replicon genotype 2a) | EC50 (HCV replicon genotype 1a) | EC50 (HCV replicon genotype 1b)
COC(=O)N[C@H](C(=O)N1CCC[C@H]1c1ncc(-c2ccc3cc4cc(-c5cnc([C@@H]6CCCN6C(=O)[C@@H](NC(=O)OC)C(C)C)[nH]5)ccc4cc3c2)[nH]1)C(C)C [Compound 36] | 0.01 nM | 0.039 nM | 0.001 nM | 
COC(=O)N[C@H](C(=O)N1CCC[C@H]1c1ncc(-c2ccc3nc4cc(-c5cnc([C@@H]6CCCN6C(=O)[C@@H](NC(=O)OC)C(C)C)[nH]5)ccc4cc3c2)[nH]1)C(C)C [Compound 37] | 0.04 nM | 0.71 nM | 0.047 nM | 0.001 nM
COC(=O)N[C@H](C(=O)N1CCC[C@H]1c1ncc(-c2ccc3nc4cc(-c5cnc([C@@H]6CCCN6C(=O)[C@@H](NC(=O)OC)C(C)C)[nH]5)ccc4nc3c2)[nH]1)C(C)C [Compound 38] |  |  | 0.035 nM | 0.015 nM
COC(=O)N[C@H](C(=O)N1CCC[C@H]1c1ncc(-c2cc3cc4oc(-c5cnc([C@@H]6CCCN6C(=O)[C@@H](NC(=O)OC)C(C)C)[nH]5)cc4cc3o2)[nH]1)C(C)C [Compound 39] |  | 0.05 nM | 0.02 nM | 0.001 nM
